Converted amounts (≈) assume the structure as drawn.
Columns and labels:
[1] = tested on: Escherichia coli ATCC 25922; assay: antimicrobial serial microdilution, E. coli; assay type: cell-based; details: serial microdilution, 37 °C, 24 h
Experimental: (§1) The in vitro antifungal and antimicrobial activities were determined by testing the Schiff bases against the fungi Saccharomyces cerevisiae, Candida albicans, and Aspergillus niger and the bacteria Staphylococcus aureus, Enterococcus faecalis (Gram-positive), Pseudomonas aeruginosa, and Escherichia coli (Gram-negative).
(§2) The bacterial inoculum was prepared by emulsifying overnight colonies from an agar medium in broth (Mueller–Hinton broth). The suspensions were adjusted to a final organism density of 5 × 10^5 colony former units (cfu)/mL. […] The emulsifying of A. niger cultures was done by pouring 5 mL of saline and 0.1% of polysorbate 80 over the Petri dishes. Then, 100 µL of this suspension were diluted in 5 mL of saline and adjusted to an optical density of 0.1 at 530 nm. For S. cerevisiae, fresh exponential YPAD (yeast extract 1%, peptone 2%, adenine 0.004%, […]) cultures were adjusted to an optical density of 0.5 at 600 nm, and then diluted to the equivalent of 1 × 10^4 cells/mL (10^−3 dilution). Stock solutions of Schiff bases were prepared by dissolving them in DMSO at 10 mg/mL. […] The range of concentrations used was empirically selected for each organisms and the Schiff base. Drug sensitivities were assayed by serial dilutions in 96-well plates as previously described. A row with media and cells but without drug was the positive control. The blank was done by preparing a row with media and drugs, but without cells. Plates were fitted with a tight lid before incubation to prevent desiccation. […] The minimum bactericidal concentration (MBC) and fungicidal concentration (MFC) were determined by spreading 100 µL of culture from each well onto a plate (Mueller–Hinton agar for bacteria, Sabouraud dextrose agar for fungi except S. cerevisiae, and YPAD for S. cerevisiae).

[2] = tested on: S. cerevisiae wild type (BY4741); assay: growth inhibition (OD600) of wild-type yeast, oxidative effect; assay type: cell-based, Saccharomyces cerevisiae
Experimental: (§3) Next, we wanted to evaluate the oxidative activity. To do this, drop test assays were performed with wild-type (W303 and BY4741 backgrounds) and sod1 (BY4741 background) yeast cells in the presence of 200 µg/mL of the analyzed Schiff bases (Figure 3). The SOD1 gene encodes superoxide dismutase 1, an enzyme with a major role in detoxifying ROS species generated during metabolism or because of environmental exposure. sod1 mutant cells are unprotected against oxidative agents, decreasing survival in their presence.
(§4) (A) Drop test of serial dilution of yeast cell cultures (wild type from genetic background W303, wild type from genetic background BY4741, and sod1 mutant from genetic background BY4741) exposed to Schiff bases at 200 µg/mL. A control without drug and with 2% DMSO are included.
as §2

[3] = DPPH radical scavenging assay; assay type: biochemical; details: statement in words
Experimental: This was used immediately. The experimental procedure was adapted from the literature. Briefly, in a 96-well plate, 100 µL of solution of DPPH (2, 2-diphenyl-1-picrylhydrazyl) radical (0.2 mM in methanol) was added to 100 µL of methanolic solutions of 3a–j, 4, or 5, prepared as serial two-fold dilutions from the stock solution. Standards were also prepared in the same concentrations.
The percentage of DPPH scavenging was then calculated by using the following formula: % DPPH scavenging=100∗Asample+DPPH−Asample blank/ADPPH−Asolvent

[4] = tested on: S. cerevisiae wild-type (W303 and BY4741 backgrounds); assay: drop test, wild-type yeast; assay type: cell-based, Saccharomyces cerevisiae; details: 200 µg/mL, 48 h, 25 °C
Experimental: Since the Schiff bases have a limited solubility in dimethyl sulfoxide (DMSO), first, we tested the toxicity of DMSO against the selected microorganism. […] Wild-type cells from W303 background seem to be more resistant, and sensitivity is observed at around 4% DMSO.
as §3, with “presence. […] Also, wild-type cells are shown as control, unaffected by the Schiff bases.” for “presence.”
(§5) For the drop test with S. cerevisiae, wild-type strain (background W303), and wild type and sod1 mutant cells (background BY4741) were grown overnight in YPAD media until an optical density of 0.5 at 600 nm was reached (equivalent to 1 × 10^7 cells/mL). Three serial dilutions were prepared and 5 µL of each was spotted onto a plate (approximately 1 × 10^5, 1 × 10^4, 1 × 10^3, and 1 × 10^2 cells/spot). YPAD plates were supplemented with 200 µg/mL of each Schiff base, and one plate supplemented with 2% DMSO and one plate with YPAD without any drug were used as controls. Plates were incubated at 25 °C for 24, 48, and 72 h.

[5] = tested on: S. cerevisiae sod1 mutant cells (background BY4741); assay: drop test, sod1 mutant yeast; assay type: cell-based, Saccharomyces cerevisiae; details: 200 µg/mL, 48 h, 25 °C, compared to control
Experimental: as §3, with “presence. […] Also, wild-type cells are shown as control, unaffected by the Schiff bases.” for “presence.”
as §5

[6] = tested on: S. cerevisiae sod1 mutant (BY4741); assay: growth inhibition (OD600) of sod1 mutant yeast, oxidative effect; assay type: cell-based, Saccharomyces cerevisiae
Experimental: as §3, §4, §2

[7] = tested on: promastigotes from L. mexicana (M379); assay: leishmanicidal activity, MTT colorimetric assay; assay type: cell-based; details: Leishmania mexicana, 48 h exposure, 1% DMSO
Experimental: Leishmanicidal activities of all Schiff bases were evaluated by measuring promastigote mitochondrial activity using MTT colorimetric assay as described previously. […] The medium was renewed every four days. Parasite density was determined in a Neubauer chamber.
Into each well of a 96-well cell culture dish was dispensed 1 × 10^6 parasites. A stock solution of each of the Schiff Base was prepared in DMSO, and serial dilutions were added to the parasite suspension, keeping the solvent concentration at 1%. The final volume was 100 µL for each well and triplicate conditions were carried out. Pentamidine treatment (100 µg/mL) and untreated parasites were used as positive control and negative control, respectively. After exposure to the compounds for 48 h in culture medium, 10 µL of a solution of 5 mg/mL MTT dissolved in PBS was added to each well. […] Later, the plate was centrifuged at 4400 rpm for 10 min and the culture medium was then aspirated. Next, 100 µL of DMSO were added into each well to solubilize the formazan and the plate was shaken for 5 min. The colored formazan salt was measured by recording changes in absorbance at 570 nm using a microplate reader, a BioTek Synergy HT spectrophotometer. A reference wavelength of 630 nm was used to subtract background. Optical densities were analyzed as the quantity of formazan is directly proportional to the number of viable parasites. Data were analyzed with the statistical software GraphPad Prism.

[8] = tested on: Enterococcus faecalis ATCC 29212; assay: antimicrobial serial microdilution, E. faecalis; assay type: cell-based; details: Enterococcus faecalis, ATCC29212; serial microdilution, 37 °C, 24 h
Experimental: as §1, §2

Cc1c(N=Cc2ccccc2O)c(=O)n(-c2ccccc2)n1C [Compound 3b, 4-(2-Hydroxybenzylideneamino)-1,5-dimethyl-2-phenyl-1H-pyrazol-3(2H)-one]
IC50 ([1]; Escherichia coli, ATCC25922): 12.1 µg/mL (≈ 39.4 µM)
MIC ([1]; Escherichia coli, ATCC25922): 49.8 ± 5 µg/mL (≈ 162 µM)
NIC E. coli ([1]; noninhibitory concentration): 2.8 ± 0.5 µg/mL
IC50 ([2]; Saccharomyces cerevisiae, unit inferred): 192 µg/mL (≈ 625 µM)
NIC Wt ([2]; unit not given): 178.0 ± 2.1
MIC Wt ([2]; unit not given, in µg/mL): 208.2 ± 4.0
antioxidant activity detected in the DPPH assay [3]: no significant antioxidant activity
effect on wild-type cells in drop test [4]: unaffected
sensitivity of sod1 cells in drop test [5]: sensitive
IC50 ([6]; Saccharomyces cerevisiae, read-out: IC50 sod1): 101 µg/mL (≈ 328 µM)
NIC sod1 ([6]; sod1 mutant BY4741, unit not given): 53.3 ± 0.1
MIC sod1 ([6]; sod1 mutant BY4741, unit not given, in µg/mL): 164.1 ± 0.1
IC50 [7]: > 200 µM
MIC [8]: > 200 µg/mL

— paper PMC6696115, “Characterization of Antimicrobial, Antioxidant, and Leishmanicidal Activities of Schiff Base Derivatives of 4-Aminoantipyrine” (Molecules, 2019)
